The subject of this data set is CCRIS mutagenicity, Ames/micronucleus/aberration tests. The experiment in a line: CCRIS mutagenicity studies.
[1] abbreviates: Test System: AMES SALMONELLA TYPHIMURIUM, Strain/Indicator: TA97, Metabolic Activation: NONE, Method: PREINCUBATION
Setting [2] is: Test System: AMES SALMONELLA TYPHIMURIUM, Strain/Indicator: TA98, Metabolic Activation: HAMSTER, LIVER, S-9, AROCLOR 1254 (10%), Method: PREINCUBATION
Where [3] appears, read: Test System: AMES SALMONELLA TYPHIMURIUM, Strain/Indicator: TA98, Metabolic Activation: NONE, Method: PREINCUBATION
The mark [4] stands for this setting: Test System: AMES SALMONELLA TYPHIMURIUM, Strain/Indicator: TA98, Metabolic Activation: RAT, LIVER, S-9, AROCLOR 1254 (10%), Method: PREINCUBATION
[5] abbreviates: Test System: AMES SALMONELLA TYPHIMURIUM, Strain/Indicator: TA100, Metabolic Activation: HAMSTER, LIVER, S-9, AROCLOR 1254 (10%), Method: PREINCUBATION
The mark [6] stands for this setting: Test System: AMES SALMONELLA TYPHIMURIUM, Strain/Indicator: TA100, Metabolic Activation: NONE, Method: PREINCUBATION
The mark [7] stands for this setting: Test System: AMES SALMONELLA TYPHIMURIUM, Strain/Indicator: TA100, Metabolic Activation: RAT, LIVER, S-9, AROCLOR 1254 (10%), Method: PREINCUBATION
Setting [8] is: Test System: AMES SALMONELLA TYPHIMURIUM, Strain/Indicator: TA1535, Metabolic Activation: HAMSTER, LIVER, S-9, AROCLOR 1254 (10%), Method: PREINCUBATION
The mark [9] stands for this setting: Test System: AMES SALMONELLA TYPHIMURIUM, Strain/Indicator: TA1535, Metabolic Activation: NONE, Method: PREINCUBATION
The mark [10] stands for this setting: Test System: AMES SALMONELLA TYPHIMURIUM, Strain/Indicator: TA1535, Metabolic Activation: RAT, LIVER, S-9, AROCLOR 1254 (10%), Method: PREINCUBATION
Where [11] appears, read: Test System: AMES SALMONELLA TYPHIMURIUM, Strain/Indicator: TA97, Metabolic Activation: NONE, Method: STANDARD PLATE.
[12] abbreviates: Test System: AMES SALMONELLA TYPHIMURIUM, Strain/Indicator: TA98, Metabolic Activation: NONE, Method: STANDARD PLATE.
Setting [13] is: Test System: AMES SALMONELLA TYPHIMURIUM, Strain/Indicator: TA100, Metabolic Activation: NONE, Method: STANDARD PLATE.

The source made the active and inactive calls. How the calls were made is not given here.

In the case of `CC(C#N)CCC#N` (configuration not stated), the mutagenic call (Test System: AMES SALMONELLA TYPHIMURIUM, Strain/Indicator: TA97, Metabolic Activation: HAMSTER, LIVER, S-9, AROCLOR 1254 (5, 10 OR 30%), Method: PREINCUBATION) was “inactive; negative”; the mutagenic call under setting [1] was “inactive; negative”; the mutagenic call (Test System: AMES SALMONELLA TYPHIMURIUM, Strain/Indicator: TA97, Metabolic Activation: RAT, LIVER, S-9, AROCLOR 1254 (5, 1O OR 30%), Method: PREINCUBATION) is “inactive; negative”; the mutagenic call under setting [2] is “inactive; negative”; the mutagenic call under setting [3] was “inactive; negative”; the mutagenic call under setting [4] was “inactive; negative”. Besides, the mutagenic call by setting is: under setting [5], “inactive; negative”; under setting [6], “inactive; negative”; under setting [7], “inactive; negative”; under setting [8], “inactive; negative”; under setting [9], “inactive; negative”; under setting [10], “inactive; negative”. Besides, the mutagenic call is “inactive; negative” (Test System: AMES SALMONELLA TYPHIMURIUM, Strain/Indicator: TA1537, Metabolic Activation: HAMSTER, LIVER, S-9, AROCLOR 1254 (10 OR 30%), Method: PREINCUBATION); “inactive; negative” (Test System: AMES SALMONELLA TYPHIMURIUM, Strain/Indicator: TA1537, Metabolic Activation: NONE, Method: PREINCUBATION); “inactive; negative” (Test System: AMES SALMONELLA TYPHIMURIUM, Strain/Indicator: TA1537, Metabolic Activation: RAT, LIVER, S-9, AROCLOR 1254 (10 OR 30%), Method: PREINCUBATION).

Take `O=c1c2ccccc2c(=O)c2c1cc(Cl)c1[nH]c3c([nH]c12)c(Cl)cc1c(=O)c2ccccc2c(=O)c13`: the mutagenic call by setting is: (Test System: Ames Salmonella typhimurium, Strain/Indicator: TA98, Metabolic Activation: None, Method: Preincubation) “active; positive”; (Test System: Ames Salmonella typhimurium, Strain/Indicator: TA100, Metabolic Activation: None, Method: Preincubation) “inactive; negative”; (Test System: Ames Salmonella typhimurium, Strain/Indicator: TA102, Metabolic Activation: None, Method: Preincubation) “inactive; negative”; (Test System: Ames Salmonella typhimurium, Strain/Indicator: TA1535, Metabolic Activation: None, Method: Preincubation) “inactive; negative”.

Turning to `c1ccc2c(c1)ccc1ccccc12`, the mutagenic call reads like this: (Test System: AMES SALMONELLA TYPHIMURIUM, Strain/Indicator: TA97, Metabolic Activation: HAMSTER, LIVER, S-9, AROCLOR 1254 (10%), Method: PREINCUBATION) “inactive; negative”; under setting [1], “inactive; negative”; under setting [11], “inactive; negative”; (Test System: AMES SALMONELLA TYPHIMURIUM, Strain/Indicator: TA97, Metabolic Activation: RAT, LIVER, S-9, AROCLOR 1254 (10%), Method: PREINCUBATION) “inactive; negative”; (Test System: AMES SALMONELLA TYPHIMURIUM, Strain/Indicator: TA97, Metabolic Activation: RAT, LIVER, S-9, PCB, Method: STANDARD PLATE) “active; positive”; under setting [2], “inactive; negative”. The mutagenic call runs as follows: under setting [3], “inactive; negative”; under setting [12], “inactive; negative”; under setting [4], “inactive; negative”; (Test System: AMES SALMONELLA TYPHIMURIUM, Strain/Indicator: TA98, Metabolic Activation: RAT, LIVER, S-9, AROCLOR 1254, Method: STANDARD PLATE) “inactive; negative”; (Test System: AMES SALMONELLA TYPHIMURIUM, Strain/Indicator: TA98, Metabolic Activation: RAT, LIVER, S-9, PCB, Method: STANDARD PLATE) “inactive; negative”; (Test System: AMES SALMONELLA TYPHIMURIUM, Strain/Indicator: TA100, Metabolic Activation: HAMSTER, LIVER, S-9, AROCLOR 1254 (5 OR 30%), Method: PREINCUBATION) “inactive; negative”. The mutagenic call under setting [5] is “inactive; negative”; the mutagenic call under setting [6] was “inactive; negative”; the mutagenic call under setting [13] was “inactive; negative”; the mutagenic call (Test System: AMES SALMONELLA TYPHIMURIUM, Strain/Indicator: TA100, Metabolic Activation: RAT, LIVER, S-9, AROCLOR 1254 (5%), Method: PREINCUBATION) was “inactive; negative”; the mutagenic call under setting [7] was “inactive; negative”; the mutagenic call (Test System: AMES SALMONELLA TYPHIMURIUM, Strain/Indicator: TA100, Metabolic Activation: RAT, LIVER, S-9, AROCLOR 1254, Method: STANDARD PLATE) was “active; positive”. Moreover, the mutagenic call is, setting by setting: (Test System: AMES SALMONELLA TYPHIMURIUM, Strain/Indicator: TA100, Metabolic Activation: RAT, LIVER, S-9, PCB, Method: STANDARD PLATE) “inactive; negative”; under setting [8], “inactive; negative”; under setting [9], “inactive; negative”; under setting [10], “inactive; negative”; (Test System: AMES SALMONELLA TYPHIMURIUM, Strain/Indicator: TA1535, Metabolic Activation: RAT, LIVER, S-9, AROCLOR 1254, Method: STANDARD PLATE) “active; positive”; (Test System: E. COLI, Strain/Indicator: WP2 UVRA, Metabolic Activation: HAMSTER, LIVER, S-9, AROCLOR 1254, Method: STANDARD PLATE) “inactive; negative”. The mutagenic call (Test System: E. COLI, Strain/Indicator: WP2 UVRA, Metabolic Activation: HAMSTER, LIVER, S-9, Method: STANDARD PLATE) is “inactive; negative”; the mutagenic call (Test System: E. COLI, Strain/Indicator: WP2 UVRA, Metabolic Activation: MOUSE, LIVER, S-9, AROCLOR 1254, Method: STANDARD PLATE) was “inactive; negative”; the mutagenic call (Test System: E. COLI, Strain/Indicator: WP2 UVRA, Metabolic Activation: MOUSE, LIVER, S-9, Method: STANDARD PLATE) was “inactive; negative”; the mutagenic call (Test System: E. COLI, Strain/Indicator: WP2 UVRA, Metabolic Activation: NONE, Method: STANDARD PLATE) is “inactive; negative”; the mutagenic call (Test System: E. COLI, Strain/Indicator: WP2 UVRA, Metabolic Activation: RAT, LIVER, S-9, AROCLOR 1254, Method: STANDARD PLATE) was “inactive; negative”; the mutagenic call (Test System: E. COLI, Strain/Indicator: WP2 UVRA, Metabolic Activation: RAT, LIVER, S-9, Method: STANDARD PLATE) is “inactive; negative”. Where the note is “Test System: UDS RAT HEPATOCYTES, Strain/Indicator: BROMODEOXYURIDINE INCORP, Metabolic Activation: NONE, Method: FLOW CYTOMETRIC ANALYSIS”, the mutagenic call is “inactive; negative”.

In the case of `O=C1CN(/N=C/C=C/c2ccc([N+](=O)[O-])o2)C(=O)N1`, the mutagenic call was “active; positive” under setting [11]; “active; positive” under setting [12]; “active; positive” under setting [13]; “active; positive” (Test System: E. COLI WP2, Strain/Indicator: WP2, Metabolic Activation: NONE, Method: SPOT).

As for `Cc1ccc2cc3c(c4c2c1CC4)C1OC1c1ccccc1-3` (configuration not stated), the mutagenic call was “active; positive” under setting [12]; “active; positive” under setting [13]; “active; positive” (Test System: CHINESE HAMSTER V-79, Strain/Indicator: V-79/8-AZAGUANINE, Metabolic Activation: NONE, Method: STANDARD PLATE).

The values are drawn from PubChem BioAssay AID1259407 (Chemical Carcinogenesis Research Information System (CCRIS), 2018).
